Data from US5516905A, “Antibiotic compounds and methods to treat gram-positive bacterial and mycoplasmal infections” (priority 1994, dated 1996).
In brackets after ≈: the same amount, converted by molar mass. Like-named read-outs stand apart in the source and are kept apart here.

Experiments:
[1] = test system: Control SA; assay: Minimal inhibitory concentration vs. growth of Staphylococcus aureus (control strain); type: cell-based
[2] = test system: Wild-Type BS; assay: Minimal inhibitory concentration vs. growth of B. subtilis; type: cell-based; conditions: Bacillus subtilis
[3] = biological target: T1, M. pulmonis peak A pol activity (Pol III); assay: DNA polymerase activity assay, M. pulmonis peak A pol (Bio-Rex 70); type: biochemical; conditions: Fraction 7 from peak A; dGTP 10 μM; arylazopyrimidines reduced to hydrazino forms
T1 construct: we prepared a crude extract of M. pulmonis; endogenous in cells; host or cells: M. pulmonis (strain KD735-15 was the strain propagated)
Protocol: (§1) Fraction Va (Bio-Rex 70 chromatography): Fraction IV was diluted with column buffer containing 1% Triton X-100 to reduce the concentration of NaCl to 25 mM, and then applied to a 2 ml Bio-Rex 70 (Bio-Rad) column equilibrated in column buffer containing 1% Triton X-100+25 mM NaCl. The column was washed with 5 ml of the same buffer, and the adsorbed enzyme was eluted in two distinct peaks (designated A and B) at approximately 0.15 and 0.30M NaCl, respectively. As the top panel of the figure indicates, peak A represents the HPUra-sensitive pol activity. Peak A was pooled to generate Fraction Va.
(§2) DNA pol activity was assayed as described (Barnes et al., NuC. Acids Res., 6:1203-19 (1979)), using activated calf-thymus DNA as template primer, […] [^3 H-methyl]-dTTP as the labelled dNTP substrate, and dATP, dCTP, and dGTP at 25 μM each. For determination of IC50 values of TMAU and the four arylazopyrimidines (summarized in Table 2), the concentration of dGTP was reduced from 25 to 10 μM. TMAU was used directly in enzyme assays, and arylazopyrimidines were reduced prior to assay to the active, hydrazino forms, using sodium dithionite as described by Wright and Brown (1977) J. Med. Chem. 20:1181-1185.
(§3) Five compounds were used to assess the sensitivity of peak A pol activity to HPUra-type inhibitors. These were the four compounds used in the growth experiment described above (HPUra, PUra, PCPUra, and MCPUra) as well as TMAU (6-([…]) uracil), a `second generation` derivative of the HPUra prototype, equivalent in mechanism and target specificity (Wright and Brown, 1990). The IC50 value (the concentration required for 50% inhibition) of each of these agents was determined for the peak A pol activity and for an inhibitor-sensitive control enzyme, B. subtilis Pol III.

[4] = test system: T2, exo activity of peak A pol; assay: Exo activity of peak A enzyme on 3'-labelled ssDNA; type: biochemical, M. pulmonis; conditions: TMAU 50 μM, dsDNA, plus 500 μM dATP
T2 construct: we prepared a crude extract of M. pulmonis; endogenous in cells; host or cells: M. pulmonis (strain KD735-15 was the strain propagated)
Protocol: (§4) Exo activity was assayed as described by Low et al. (1976), supra, using denatured calf-thymus DNA incorporating [^3 H]-dTMP residues at the 3'-OH ends.
(§5) TMAU at 50 μM inhibited ssDNA digestion by about 70% in the presence of dsDNA. When the latter mixture was supplemented with 500 μM dGTP, the specific antagonist of TMAU-induced sequestration inhibition was reduced to a level of <3%.

[5] = biological target: T3, exo activity of peak A pol (Bacillus subtilis, UniProt P13267); assay: Exo activity of peak A enzyme on 3'-labelled ssDNA; type: biochemical, M. pulmonis; conditions: for inhibition at 50 µM: read-out: Inhibition of ssDNA digestion
T3 construct: we prepared a crude extract of M. pulmonis; endogenous in cells; host or cells: M. pulmonis (strain KD735-15 was the strain propagated)
Protocol: as §4, §5

[6] = test system: Methicillin-Resistant SA; assay: Minimal inhibitory concentration vs. growth of methicillin-resistant Staphylococcus aureus; type: cell-based
[7] = biological target: T4, B. subtilis Pol III (Bacillus subtilis, UniProt P13267); assay: DNA polymerase activity assay, B. subtilis Pol III; type: biochemical; conditions: dGTP 10 μM; arylazopyrimidines reduced to hydrazino forms
T4 construct: B. subtilis Pol III was prepared and used as described by (Barnes); made in house
Protocol: as §2, §3

[8] = test system: M. pulmonis strain KD735-15; assay: Mycoplasmal growth inhibition on agar (colony formation, cfu); type: cell-based, Mycoplasma pulmonis; conditions: for IC99: Mycoplasmopsis pulmonis, KD73515, series 100, 50, 25, 12.5 and 6.25 μM, read-out: Concentration required to inhibit colony formation by 99%
Protocol: M. pulmonis strain KD735-15 (construction described in Bhugra and Dybvig, 1992) was propagated in mycoplasmal medium, and colony-forming units (cfu) were assessed on agar as previously described (Dybvig and Cassell, 1987). M pulmonis is a representative species which is well characterized. Other publicly available strains may also be used. For example, Mycoplasma agalactiae, ATCC 35890, Mycoplasma arthritidis ATCC 13988, Mycoplasma bovigenitalium, ATCC 14173, Mycoplasma bovirhinis, ATCC 27748, Mycoplasma bovis, ATCC 25025, Mycoplasma felis, ATCC 23391, Mycoplasma gallinaceum, ATCC 33550, Mycoplasma gallinarum, ATCC 15319, Mycoplasma gallisepticum, ATCC 15302, Mycoplasma genitalium, ATCC 33530, Mycoplasma hominis, ATCC 14027, Mycoplasma hyorhinis, ATCC 17981, Mycoplasma hyosynoviae, ATCC 25591, Mycoplasma meleagridis, ATCC 25294, Mycoplasma orale, ATCC 15539, Mycoplasma pneumoniae, ATCC 15293, Mycoplasma pullorum, ATCC 33553, Mycoplasma pulmonis, ATCC 14267, Mycoplasma putrefaciens, ATCC 15718, Mycoplasma synoviae, ATCC 25204, may also be used. The inhibitors used here were prepared as described in Wright and Brown ((1990) Pharmac. Ther. 47:447-497) and were prepared at a stock concentration of 20 mM in dimethyl sulphoxide (DMSO). Growth inhibition was examined on agar by comparing cfu obtained on medium lacking or supplemented with antibiotic. DMSO alone at concentrations as high as 1% had no effect on growth or cfu capacity of M. pulmonis.
HPUra and 25 other agents selected from a large collection of structurally related compounds (Wright and Brown, 1990, Pharmac. Ther. 47:447-497) were tested against M. pulmonis at a concentration of 200 μM as described in the Experimental procedures.

[9] = test system: M. pulmonis peak B pol activity; assay: DNA polymerase activity assay, M. pulmonis peak B pol (Bio-Rex 70); type: biochemical; conditions: 200 μM HPUra
Protocol: as §1, §2
To characterize the HPUra-sensitive pol activity further, we purified it using a five-step scheme summarized in Table 1 and described in the Experimental procedures. […]

[10] = test system: mammalian cells; conditions: cited from earlier work
[11] = biological target: T5, M. pulmonis peak A pol activity (Pol III) (Bacillus subtilis, UniProt P13267); assay: DNA polymerase activity assay, M. pulmonis peak A pol (Bio-Rex 70); type: biochemical; conditions: 200 μM HPUra
T5 construct: we prepared a crude extract of M. pulmonis; endogenous in cells; host or cells: M. pulmonis (strain KD735-15 was the strain propagated)
Protocol: as §1, §2, §3

[12] = nucleotide 500 μM, no TMAU, sequestering conditions with dsDNA

T3 sequence (P13267 whole entry): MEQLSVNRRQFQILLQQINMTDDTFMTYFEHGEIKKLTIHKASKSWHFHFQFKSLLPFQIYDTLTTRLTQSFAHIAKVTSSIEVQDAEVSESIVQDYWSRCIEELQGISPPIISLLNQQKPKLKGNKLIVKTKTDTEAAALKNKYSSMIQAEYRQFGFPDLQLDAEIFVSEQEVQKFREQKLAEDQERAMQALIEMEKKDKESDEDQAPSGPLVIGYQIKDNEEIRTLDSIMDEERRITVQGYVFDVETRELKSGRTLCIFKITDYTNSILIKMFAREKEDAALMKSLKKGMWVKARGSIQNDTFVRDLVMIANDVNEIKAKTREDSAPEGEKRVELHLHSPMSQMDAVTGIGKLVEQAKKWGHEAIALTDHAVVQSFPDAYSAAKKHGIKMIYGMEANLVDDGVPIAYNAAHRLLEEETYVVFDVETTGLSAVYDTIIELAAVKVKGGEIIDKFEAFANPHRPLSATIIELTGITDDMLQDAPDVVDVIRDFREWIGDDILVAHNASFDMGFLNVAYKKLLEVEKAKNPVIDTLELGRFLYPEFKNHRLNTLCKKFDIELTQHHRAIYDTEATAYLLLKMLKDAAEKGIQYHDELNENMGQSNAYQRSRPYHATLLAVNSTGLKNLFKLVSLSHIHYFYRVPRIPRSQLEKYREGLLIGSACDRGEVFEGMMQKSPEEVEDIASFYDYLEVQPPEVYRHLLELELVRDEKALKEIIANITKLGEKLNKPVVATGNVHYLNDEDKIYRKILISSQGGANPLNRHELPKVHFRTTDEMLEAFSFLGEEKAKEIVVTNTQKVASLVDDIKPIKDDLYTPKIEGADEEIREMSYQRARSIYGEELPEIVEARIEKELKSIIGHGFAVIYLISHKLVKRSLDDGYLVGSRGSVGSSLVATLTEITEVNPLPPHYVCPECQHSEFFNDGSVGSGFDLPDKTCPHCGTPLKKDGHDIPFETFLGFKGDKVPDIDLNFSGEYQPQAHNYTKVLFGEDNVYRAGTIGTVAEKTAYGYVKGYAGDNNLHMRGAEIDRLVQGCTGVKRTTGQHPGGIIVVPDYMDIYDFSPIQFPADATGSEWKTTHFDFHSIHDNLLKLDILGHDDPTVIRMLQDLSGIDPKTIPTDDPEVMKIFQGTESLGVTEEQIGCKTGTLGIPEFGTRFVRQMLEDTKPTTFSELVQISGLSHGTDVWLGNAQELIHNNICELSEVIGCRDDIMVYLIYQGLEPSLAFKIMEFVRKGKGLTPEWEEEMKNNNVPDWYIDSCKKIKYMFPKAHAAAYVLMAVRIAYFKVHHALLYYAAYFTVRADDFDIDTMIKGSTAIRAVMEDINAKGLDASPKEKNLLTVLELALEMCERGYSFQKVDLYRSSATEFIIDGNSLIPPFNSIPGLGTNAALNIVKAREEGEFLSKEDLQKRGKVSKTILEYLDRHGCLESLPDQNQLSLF
T1 sequence (P13267 whole entry): as above
T4 sequence (P13267 whole entry): as above
T2 sequence (P13267 whole entry): as above
T5 sequence (P13267 whole entry): as above

MIC [1]	MIC [2]	IC50 [3]	MIC [6]	IC50 [7]	SMILES	also measured
8 µg/mL (≈ 32.9 µM)	23 µg/mL (≈ 94.5 µM)	11 µM	4 µg/mL (≈ 16.4 µM)	8 µM	O=c1cc(Nc2ccc3c(c2)CCC3)[nH]c(=O)[nH]1 [TMAU, 6-(3',4'-trimethylanilino) uracil]	Effect of dATP on level of inhibition of ssDNA digestion [4]: no significant effect; Exo Activity (%) ([5]; TMAU 50 μM + dGTP 500 μM, sequestering conditions with dsDNA): 98%; activity at 50 µM ([5]; TMAU 50 μM alone, sequestering conditions with dsDNA): 31%; inhibition at 50 µM ([5]; TMAU 50 μM, dsDNA, plus 500 μM dGTP): < 3%; inhibition at 50 µM ([5]; TMAU 50 μM, in the presence of dsDNA): ~70%; Exo activity on ssDNA, sensitivity ([5]; TMAU 50 μM, ssDNA without dsDNA, preliminary, results not shown): resistant
		20 µM		34 µM	O=c1cc(N=Nc2ccccc2)[nH]c(=O)[nH]1 [PUra, 6-(phenylazo)uracil]	IC99 [8]: 6.25 to 12.5 µM
		17 µM		48 µM	O=c1cc(N=Nc2cccc(Cl)c2)[nH]c(=O)[nH]1 [MCPUra, 6-(m-chlorophenylazo)uracil]	IC99 [8]: 12.5 µM
1 µg/mL (≈ 3.69 µM)	4 µg/mL (≈ 14.7 µM)		0.5 µg/mL (≈ 1.84 µM)		CCn1c(=O)cc(Nc2ccc3c(c2)CCC3)[nH]c1=O [C2 H5]	
		31 µM		57 µM	Oc1cc(N=Nc2ccc(Cl)cc2)nc(O)n1 [PCPUra, 6-(p-chlorophenylazo) uracil]	IC99 [8]: < 6.25 µM
	3.5 µg/mL (≈ 12.3 µM)				CCCn1c(=O)cc(Nc2ccc3c(c2)CCC3)[nH]c1=O [nC3 H7]	
					Nc1nc2c(ncn2[C@H]2C[C@H](O)[C@@H](COP(=O)(O)OP(=O)(O)OP(=O)(O)O)O2)c(=O)[nH]1 [dGTP]	Exo Activity (%) [5, 12]: 103%
1 µg/mL (≈ 2.63 µM)			128 µg/mL (≈ 336 µM)		COc1cccc(OC)c1C(=O)N[C@@H]1C(=O)N2[C@@H]1SC(C)(C)[C@@H]2C(=O)O [Methicillin]	
> 128 µg/mL	1.8 µg/mL (≈ 6.01 µM)		0.5 µg/mL (≈ 1.67 µM)		CCCCn1c(=O)cc(Nc2ccc3c(c2)CCC3)[nH]c1=O [nC4 H9]	
					Nc1ncnc2c1ncn2[C@H]1C[C@H](O)[C@@H](COP(=O)(O)OP(=O)(O)OP(=O)(O)O)O1 [dATP]	Exo Activity (%) [5, 12]: 101%
	7 µg/mL (≈ 27.2 µM)				Cn1c(=O)cc(Nc2ccc3c(c2)CCC3)[nH]c1=O [CH3]	

SMILES	MIC [1]	MIC [2]	IC50 [3]	MIC [6]	IC50 [7]	also measured
O=c1cc(N=Nc2ccc(O)cc2)[nH]c(=O)[nH]1 [HPUra, 6-(p-Hydroxyphenylazo)-uracil]			14 µM		11 µM	Sensitivity of peak B pol activity [9]: insensitive; Toxicity in mammalian cells [10]: low toxicity; Sensitivity of peak A pol activity [11]: drug-sensitive; Inhibition of colony formation ([8]; 200 μM): completely inhibited colony formation
